# Measured values taken from publication PMC10652874, “Investigation into the mechanism of action of the antimicrobial peptide epilancin 15X” (Frontiers in Microbiology, 2023).
# System: S. carnosus TM300
# Assay: RNAseq differential gene expression
# Format: cell-based, Staphylococcus carnosus
# Protocol: For the RNAseq experiments, epilancin was added at sub-lethal concentration (0.5x MIC) to S. carnosus TM300 once the cultures reached an OD600 of 0.6. RNA was extracted 40 min after the treatment, using a FastRNA Pro Blue kit (MP Biomedicals). Both treated and parallel untreated samples were collected at the same time. Sequencing was performed at the Carver Biotechnology Center (UIUC). For RNAseq analysis, gene counts were read in to R (v3.1.1; [Team, 2014]), and 14/2441 genes were removed because they had fewer than 32 total counts across the six samples. edgeR’s (v3.6.7) TMM normalization ([Robinson and Oshlack, 2010]) plus negative binomial generalized log-linear model ([McCarthy et al., 2012]) was used to test for differential expression between treated and untreated groups, while accounting for pairing of U and T replicates from three different cultures. p-values were adjusted using the false discovery rate method ([Benjamini and Hochberg, 1995]).
# [1] = putative ABC transporter ATP-binding protein
# [2] = putative short chain dehydrogenase
# [3] = putative transcriptional regulator
substance,measurement,setting,value
Epilancin 15X,fold_change mobA,molybdopterin-guanine dinucleotide biosynthesis protein MobA,2.6
same,fold_change mutT,mutT/nudix family protein,5.15
same,fold_change int,phage integrase,3.38
same,fold_change pstB,phosphate transporter ATP-binding protein,3.4
same,fold_change deoB,"phosphopentomutase, gene drm",2.75
same,fold_change dltD,poly D-alanine transfer protein,2.08
same,fold_change proP,proline/betaine transporter,2.73
same,fold_change Sca_0040,putative 2-keto-4-pentenoate hydratase,2.87
same,fold_change Sca_1843,putative 3-methyladenine DNA glycosylase,2.27
same,fold_change Sca_0458,[1],3.16
same,fold_change Sca_2242,[1],2.55
same,fold_change Sca_1033,putative ABC transporter permease,3.26
same,fold_change Sca_0699,putative ABC-type cobalt transport system ATPase,2.62
same,fold_change clpL,putative ATP-dependent Clp proteinase chain clpL,7.83
same,fold_change Sca_0398,putative ATP-dependent helicase,3.32
same,fold_change Sca_0642,putative ComK family protein,2.73
same,fold_change Sca_2395,putative CorA-like Mg2+ transporter protein,2.01
same,fold_change Sca_1264,"putative DNA repair protein RadC, gene radC",12.09
same,fold_change sufB,putative FeS assembly protein SufB,3.43
same,fold_change Sca_0476,"putative HNH family endonuclease, phage associated",4.35
same,fold_change Sca_0479,"putative IstB-like ATP-binding protein, phage associated",3.51
same,fold_change sdaB,putative L-serine dehydratase subunit beta,3.71
same,fold_change sdaA,"putative L-serine dehydratase, iron-sulfur-dependent subunit alpha",2.95
same,fold_change Sca_0539,putative MerR family transcriptional regulator,2.12
same,fold_change Sca_0093,putative N-acetyltransferase,2.6
same,fold_change Sca_1976,putative NAD(P)H-flavin oxidoreductase,5.31
same,fold_change Sca_0831,putative NADH-flavin reductase,4.42
same,fold_change Sca_1692,putative NADP-dependent oxidoreductase,5.86
same,fold_change Sca_1977,putative NADPH oxidoreductase,5.07
same,fold_change Sca_2123,putative Na(+)/H(+) antiporter subunit G,2.16
same,fold_change Sca_2138,"putative PTS system, IIBC components",2.3
same,fold_change Sca_2137,putative RpiR family transcriptional regulator,2.96
same,fold_change Sca_2214,putative Tat-translocated protein,3.14
same,fold_change adc,putative acetoacetate decarboxylase,2.51
same,fold_change fadE,putative acid-CoA ligase,2.21
same,fold_change adhC,putative alcohol dehydrogenase,2.53
same,fold_change Sca_2013,"putative alcohol dehydrogenase, zinc-containing",3.05
same,fold_change aldH,putative aldehyde dehydrogenase,0.49
same,fold_change Sca_1625,putative aldehyde dehydrogenase family protein,2.65
same,fold_change Sca_1685,putative alkaline shock protein,4.53
same,fold_change Sca_1958,putative alpha-acetolactate decarboxylase,4.48
same,fold_change Sca_0638,putative alpha/beta fold family hydrolase,2.8
same,fold_change Sca_0872,putative alpha/beta hydrolase superfamily protein,3.04
same,fold_change Sca_0567,putative amidohydrolase,2.54
same,fold_change Sca_0399,putative amidophosphoribosyltransferase,3.6
same,fold_change Sca_2120,putative amino acid transporter,0.49
same,fold_change Sca_2151,putative antibiotic transport-associated protein,2.04
same,fold_change Sca_0467,"putative antirepressor, phage associated",4.9
same,fold_change brnQ,putative branched-chain amino acid carrier,0.5
same,fold_change katE/B,putative catalase,5.7
same,fold_change Sca_0538,putative cation exporting ATPase,5
same,fold_change czrB,putative cation-efflux system membrane protein,9.3
same,fold_change Sca_0867,putative cell wall-anchored protein,2.34
same,fold_change Sca_0698,putative cobalt transport system permease,2.09
same,fold_change copA,putative copper-transporting P-type ATPase,2.32
same,fold_change Sca_0707,putative cytochrome D ubiquinol oxidase subunit I,2.66
same,fold_change Sca_0708,putative cytochrome D ubiquinol oxidase subunit II,3.72
same,fold_change dut,"putative dUTP pyrophosphatase, phage associated",3.34
same,fold_change Sca_2298,putative dioxygenase,4.81
same,fold_change Sca_0871,putative effector domain of transcriptional regulator,3.63
same,fold_change Sca_0099,putative esterase of the alpha-beta hydrolase superfamily,2.92
same,fold_change fmdA,putative formamidase,5.66
same,fold_change Sca_1468,putative general stress protein,2.39
same,fold_change Sca_0390,putative glycerate kinase,2.11
same,fold_change Sca_1327,putative glycerophosphoryl diester phosphodiesterase,2.21
same,fold_change opuCB,putative glycine betaine/carnitine/choline transport system permease,2.02
same,fold_change Sca_0056,putative glycosyl transferase,2.07
same,fold_change Sca_1969,putative glyoxylase family protein,4.21
same,fold_change hrcA,putative heat-inducible transcriptional repressor,3.08
same,fold_change lrgA,putative holin-like protein LrgA,3.61
same,fold_change Sca_0480,"putative holliday junction resolvase, phage associated",3.23
same,fold_change Sca_2166,putative indole-3-pyruvate decarboxylase,2.06
same,fold_change Sca_0081,putative intracellular protease/amidase,5.75
same,fold_change Sca_1648,putative mannose-6-phosphate isomerase,0.5
same,fold_change Sca_0366,putative membrane-bound sulfatase,2.62
same,fold_change adaB,putative methylated DNA-protein cysteine methyltransferase,2.26
same,fold_change Sca_2129,putative monovalent cation/H+ antiporter subunit A,3.98
same,fold_change Sca_2128,putative monovalent cation/H+ antiporter subunit B,2.49
same,fold_change Sca_2127,putative monovalent cation/H+ antiporter subunit C,2.24
same,fold_change Sca_2126,putative monovalent cation/H+ antiporter subunit D,2.35
same,fold_change Sca_2125,putative monovalent cation/H+ antiporter subunit E,2.21
same,fold_change Sca_2124,putative monovalent cation/H+ antiporter subunit F,2.43
same,fold_change Sca_0449,putative nitroreductase,2.26
same,fold_change mocA,putative oxidoreductase protein,5.88
same,fold_change Sca_0684,putative peptidase,2.13
same,fold_change Sca_1042,putative peptidase (peptidase family M20/M25/M40),0.49
same,fold_change Sca_2130,putative phage integrase family protein,8.35
same,fold_change pstA,putative phosphate ABC transporter permease,3.6
same,fold_change Sca_1034,putative phosphate transport system substrate-binding protein,3.27
same,fold_change Sca_1030,putative phosphate uptake regulator protein,3.27
same,fold_change Sca_0075,putative phospholipase/carboxylesterase,3.41
same,fold_change Sca_0147,putative purine regulatory protein,2.18
same,fold_change pdp,putative pyrimidine nucleoside phosphorylase,2.55
same,fold_change czrA,putative repressor protein,8.56
same,fold_change vraR,putative response regulator,8.62
same,fold_change Sca_0400,putative ribosome-associated protein,2.26
same,fold_change csdB,putative selenocysteine lyase,3.29
same,fold_change Sca_1824,[2],2.61
same,fold_change Sca_2218,[2],3.36
same,fold_change Sca_2233,[2],2.35
same,fold_change xerD,putative site-specific recombinase XerD,2.53
same,fold_change Sca_0225,putative sugar phosphate isomerase,3.01
same,fold_change trxB,putative thioredoxine reductase,2.17
same,fold_change gltC,putative transcription activator of glutamate synthase operon,2.32
same,fold_change Sca_1970,putative transcription regulator MarR family,3.81
same,fold_change Sca_2227,putative transcriptional activator TenA,2.88
same,fold_change Sca_0070,[3],5.38
same,fold_change Sca_2381,[3],3.42
same,fold_change Sca_1791,putative transmembrane protein,8.45
same,fold_change Sca_1822,putative transport protein,0.49
same,fold_change Sca_1423,putative two-component response regulator,0.49
same,fold_change norA,quinolone resistance protein NorA,2.56
same,fold_change spoVG,regulatory protein SpoVG,2.18
same,fold_change rnpA,ribonuclease P,2.02
same,fold_change prmA,"ribosomal protein L11 methyltransferase, gene SCA_1200",2.07
same,fold_change Sca_0809,secretory antigen SsaA,2.03
same,fold_change Sca_0615,sodium:alanine symporter family protein,3.14
same,fold_change Sca_2363,"succinate-semialdehyde dehydrogenase (NADP+), gene gabD",2.52
same,fold_change trmFO,"tRNA (uracil-5-)-methyltransferase Gid, gene gid",2.02
same,fold_change tdk,thymidine kinase,0.49
same,fold_change perR,transcription regulator Fur family,2.27
same,fold_change ctsR,transcription repressor of class III stress genes,5.22
same,fold_change Sca_0964,transport system binding protein,3.98
same,fold_change sipB,type-1 signal peptidase 1B,2.45
same,fold_change sipA,type-I signal peptidase,2.68
